According to the supplement of paper PMC10307832:

Experiments:
Experiment in all cases: relative viability (nuclei count vs DMSO), 5 days (fraction); higher = more cells survive
[1] = compound: C=CCNC1=C2C[C@@H](C)C[C@H](OC)[C@H](O)[C@@H](C)/C=C(\C)[C@H](OC(N)=O)[C@@H](OC)/C=C\C=C(/C)C(=O)NC(=CC1=O)C2=O [17-AAG]
How it was run: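 Lung cancer cell lines received five library-drug doses (not always all listed) spaced by √10, pinned on vehicle-anchored 1536-well plates after an overnight stay at 37 °C. Five days later, with no medium change, nuclei were Hoechst-stained, imaged at 4× and counted with MetaXpress. Viability is treated-well nuclei relative to vehicle-well nuclei, as a median across plates. Passing plates had control CV below 25% and at least one doubling.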

[2] = compound: C=CCNC1=C2C[C@@H](C)C[C@H](OC)[C@H](O)[C@@H](C)/C=C(\C)[C@H](OC(N)=O)[C@@H](OC)/C=C\C=C(/C)C(=O)NC(=CC1=O)C2=O [17-AAG] + CC(=O)c1c(C)c2cnc(Nc3ccc(N4CCNCC4)cn3)nc2n(C2CCCC2)c1=O [Palbociclib] (partner 0.5 µM)
How it was run: (§1)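 Lung cancer cell lines were seeded in 1536-well plates and dosed by pin tool the next day, with either a single drug or a fixed anchor-drug dose combined with five library-drug doses (not always all listed) spaced in √10 steps. Five days later, one step fixed the cells and stained their nuclei (final 0.05% Triton X-100, 1% formaldehyde, 1 ug/ml Hoechst), and nuclei were counted on 4× images. Relative viability is the nuclei count in treated wells divided by the count in vehicle wells, and each value is the median of duplicate plates.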

[3] = compound: C=CCNC1=C2C[C@@H](C)C[C@H](OC)[C@H](O)[C@@H](C)/C=C(\C)[C@H](OC(N)=O)[C@@H](OC)/C=C\C=C(/C)C(=O)NC(=CC1=O)C2=O [17-AAG] + COc1cc2c(Oc3ccc(NC(=O)C4(C(=O)Nc5ccc(F)cc5)CC4)cc3F)ccnc2cc1OCCCN1CCOCC1 [Foretinib] (partner 0.25 µM)
How it was run: as §1

[4] = compound: C=CCNC1=C2C[C@@H](C)C[C@H](OC)[C@H](O)[C@@H](C)/C=C(\C)[C@H](OC(N)=O)[C@@H](OC)/C=C\C=C(/C)C(=O)NC(=CC1=O)C2=O [17-AAG] + COc1cccc2cc(-c3nc([C@H]4CC[C@H](C(=O)O)CC4)n4ncnc(N)c34)[nH]c12 [OSI-027] (partner 0.5 µM)
How it was run: as §1

Row | Cell Line | relative viability ([1]; 0.00128 µM) | relative viability ([1]; 0.004048 µM) | relative viability ([1]; 0.0128 µM) | relative viability ([1]; 0.04048 µM) | relative viability ([1]; 0.128 µM) | relative viability ([2]; first compound 0.00128 µM) | relative viability ([2]; first compound 0.004048 µM) | relative viability ([2]; first compound 0.0128 µM) | relative viability ([2]; first compound 0.04048 µM) | relative viability ([2]; first compound 0.128 µM) | relative viability ([3]; first compound 0.00128 µM) | relative viability ([3]; first compound 0.004048 µM) | relative viability ([3]; first compound 0.0128 µM) | relative viability ([3]; first compound 0.04048 µM) | relative viability ([3]; first compound 0.128 µM) | relative viability ([4]; first compound 0.00128 µM) | relative viability ([4]; first compound 0.004048 µM) | relative viability ([4]; first compound 0.0128 µM) | relative viability ([4]; first compound 0.04048 µM) | relative viability ([4]; first compound 0.128 µM)
1 | LU99A | 0.909 | 0.867 | 0.627 | 0.369 | 0.169 | 0.434 | 0.42 | 0.384 | 0.454 | 0.137 | 0.931 | 0.783 | 0.719 | 0.222 | 0.213 | 0.333 | 0.332 | 0.282 | 0.217 | 0.141
2 | LXF-289 | 1.01 | 1 | 0.872 | 0.167 | 0.121 | 0.606 | 0.55 | 0.602 | 0.545 | 0.227 | 1.05 | 0.961 | 0.879 | 0.381 | 0.152 | 0.823 | 0.779 | 0.53 | 0.104 | 0.0657
3 | NCI-H23 | 0.949 | 0.851 | 0.289 | 0.177 | 0.147 | 0.503 | 0.456 | 0.292 | 0.192 | 0.14 | 0.906 | 1.04 | 0.842 | 0.641 | 0.182 | 0.623 | 0.646 | 0.365 | 0.179 | 0.121
4 | NCI-H322M | 0.95 | 0.967 | 0.483 | 0.346 | 0.325 | 0.463 | 0.511 | 0.468 | 0.425 | 0.366 | 0.971 | 1.04 | 0.577 | 0.306 | 0.323 | 0.465 | 0.364 | 0.329 | 0.285 | 0.271
5 | NCI-H358 | 0.889 | 0.532 | 0.119 | 0.115 | 0.103 | 0.171 | 0.0944 | 0.0747 | 0.0677 | 0.079 | 0.669 | 0.397 | 0.0697 | 0.0813 | 0.0542 | 0.768 | 0.41 | 0.0521 | 0.0586 | 0.0417
6 | NCI-H441 | 0.857 | 0.693 | 0.223 | 0.192 | 0.105 | 0.283 | 0.166 | 0.108 | 0.116 | 0.107 | 0.903 | 0.862 | 0.39 | 0.211 | 0.0805 | 0.581 | 0.429 | 0.203 | 0.19 | 0.137
7 | NCI-H460 | 0.96 | 0.965 | 0.198 | 0.0341 | 0.0297 | 0.31 | 0.117 | 0.016 | 0.0279 | 0.0159 | 0.983 | 0.907 | 0.063 | 0.0391 | 0.0257 | 0.62 | 0.413 | 0.0464 | 0.0193 | 0.0168
8 | NCI-H520 | 1.01 | 0.974 | 0.566 | 0.193 | 0.185 | 0.232 | 0.228 | 0.175 | 0.153 | 0.133 | 0.763 | 0.56 | 0.702 | 0.169 | 0.142 | 0.305 | 0.268 | 0.27 | 0.202 | 0.152
9 | NCI-H647 | 0.985 | 0.779 | 0.135 | 0.108 | 0.091 | 0.414 | 0.284 | 0.102 | 0.0567 | 0.0782 | 1.1 | 1.16 | 0.863 | 0.117 | 0.0874 | 0.585 | 0.553 | 0.187 | 0.0899 | 0.0977
10 | NCI-H650 | 0.894 | 1.01 | 0.798 | 0.511 | 0.264 | 0.325 | 0.356 | 0.371 | 0.339 | 0.161 | 1.04 | 1.02 | 1 | 0.934 | 0.249 | 0.502 | 0.602 | 0.494 | 0.426 | 0.258
11 | NCI-H661 | 0.937 | 0.998 | 0.953 | 0.549 | 0.295 | 0.411 | 0.365 | 0.314 | 0.353 | 0.254 | 0.945 | 0.989 | 0.809 | 0.567 | 0.286 | 0.713 | 0.672 | 0.636 | 0.261 | 0.21
12 | NCI-H727 | 0.989 | 0.922 | 0.858 | 0.5 | 0.344 | 0.661 | 0.706 | 0.588 | 0.482 | 0.425 | 0.834 | 0.978 | 0.636 | 0.41 | 0.356 | 0.602 | 0.573 | 0.506 | 0.359 | 0.24
13 | NCI-H838 | 1.03 | 0.963 | 0.575 | 0.187 | 0.177 | 0.234 | 0.209 | 0.133 | 0.14 | 0.129 | 0.965 | 0.977 | 0.667 | 0.178 | 0.158 | 0.408 | 0.369 | 0.246 | 0.147 | 0.124
14 | NCI-H1355 | 0.983 | 0.974 | 0.899 | 0.193 | 0.159 | 0.414 | 0.386 | 0.385 | 0.302 | 0.157 | 0.938 | 0.97 | 0.91 | 0.843 | 0.328 | 0.44 | 0.467 | 0.272 | 0.185 | 0.166
15 | NCI-H1395 | 0.79 | 0.818 | 0.648 | 0.388 | 0.342 | 0.632 | 0.61 | 0.532 | 0.373 | 0.384 | 0.963 | 0.988 | 0.843 | 0.396 | 0.318 | 0.634 | 0.619 | 0.467 | 0.377 | 0.277
16 | NCI-H1437 | 1.03 | 0.931 | 0.637 | 0.249 | 0.178 | 0.3 | 0.351 | 0.259 | 0.198 | 0.167 | 1.21 | 1.22 | 1.09 | 0.259 | 0.193 | 0.877 | 0.836 | 0.656 | 0.186 | 0.123
17 | NCI-H1650 | 0.89 | 0.477 | 0.197 | 0.2 | 0.144 | 0.294 | 0.187 | 0.122 | 0.115 | 0.0961 | 0.89 | 0.344 | 0.225 | 0.212 | 0.175 | 0.483 | 0.226 | 0.139 | 0.189 | 0.176
18 | NCI-H1651 | 0.955 | 0.964 | 0.945 | 0.681 | 0.335 | 0.496 | 0.563 | 0.511 | 0.451 | 0.302 | 0.788 | 0.664 | 0.423 | 0.15 | 0.161 | 0.749 | 0.685 | 0.683 | 0.395 | 0.143
19 | NCI-H1666 | 1.01 | 0.913 | 0.723 | 0.47 | 0.364 | 0.618 | 0.672 | 0.609 | 0.519 | 0.526 | 1.04 | 0.963 | 0.587 | 0.383 | 0.341 | 0.875 | 0.782 | 0.52 | 0.395 | 0.335
20 | NCI-H1734 | 0.98 | 1.02 | 0.839 | 0.284 | 0.15 | 0.366 | 0.402 | 0.369 | 0.303 | 0.175 | 0.895 | 0.951 | 0.856 | 0.282 | 0.18 | 0.602 | 0.709 | 0.415 | 0.263 | 0.144
21 | NCI-H1755 | 1.01 | 0.943 | 0.897 | 0.433 | 0.238 | 0.435 | 0.443 | 0.471 | 0.425 | 0.33 | 0.92 | 0.898 | 0.888 | 0.302 | 0.309 | 0.773 | 0.69 | 0.602 | 0.197 | 0.114
22 | NCI-H1793 | 0.967 | 0.842 | 0.282 | 0.186 | 0.135 | 0.345 | 0.295 | 0.208 | 0.14 | 0.17 | 0.63 | 0.622 | 0.442 | 0.165 | 0.161 | 0.252 | 0.234 | 0.156 | 0.124 | 0.125
23 | NCI-H1915 | 0.917 | 0.966 | 0.952 | 0.152 | 0.0877 | 0.533 | 0.503 | 0.471 | 0.253 | 0.0774 | 1.09 | 1.06 | 1.12 | 1.06 | 0.271 | 0.606 | 0.605 | 0.482 | 0.088 | 0.0931
24 | NCI-H1944 | 0.863 | 0.915 | 0.896 | 0.251 | 0.178 | 0.331 | 0.341 | 0.3 | 0.281 | 0.151 | 0.974 | 0.896 | 0.735 | 0.216 | 0.175 | 0.406 | 0.403 | 0.321 | 0.184 | 0.164
25 | NCI-H1975 | 0.909 | 0.889 | 0.372 | 0.16 | 0.167 | 0.547 | 0.526 | 0.22 | 0.106 | 0.104 | 1.02 | 0.904 | 0.288 | 0.136 | 0.118 | 0.654 | 0.446 | 0.133 | 0.147 | 0.115
26 | NCI-H1993 | 0.937 | 0.909 | 0.611 | 0.476 | 0.432 | 0.704 | 0.622 | 0.813 | 0.373 | 0.296 | 0.83 | 0.846 | 0.826 | 0.516 | 0.466 | 0.586 | 0.636 | 0.593 | 0.394 | 0.41
